Experimental data: patent US20230295088A1, “INSULIN SENSITIZERS FOR THE TREATMENT OF DIABETES MELLITUS” (University of Iowa Research Foundation, priority 2020, published 2023)
“Also recorded” adds a separate entry of the source.

Assays:
[1] = tested on: diet-induced obese (DIO) mice; experiment: Glucose tolerance, fasting glucose and insulin in diet-induced obese (DIO) insulin-resistant mice; type: in vivo, mouse
Experimental: To test whether C3 improves glucose handling, WT mice were made insulin-resistant by feeding them a high fat diet (HFD) for a period of 10 weeks. After 10 weeks, mice were injected with vehicle. C3 (20 mg/kg), or the TZD rosiglitazone (20 mg/kg) for 2 weeks while remaining on the HFD. […] To further test the in vivo efficacy of C3, a glucose tolerance test (GTT) was perfromed.
(§1) To test whether C3 improves glucose handling, lean mice were injected with vehicle or C3 30 minutes before performing a glucose tolerance test. […] To further determine if C3 can reverse glucose intolerance, WT mice were made insulin-resistant by feeding them a high fat diet (HFD) for a period of 10 weeks. Diet induced obese (DIO) mice were then injected with vehicle or C3 for 2 weeks while remaining on HFD.

lean mice = experiment: Glucose tolerance test in lean mice; type: in vivo, mouse; details: single injection before GTT
Experimental: as §1, with “C3 improves glucose tolerance in lean and obese insulin resistant mice. To test” for “To test”, “on HFD. […] Together those results establish in vivo efficacy of C3 for the treatment of insulin resistance.” for “on HFD.”

liver = experiment: Liver toxicity markers and liver triglyceride in treated mice; type: in vivo, mouse
From the text: (§2) C3 is not liver toxic and acts through a different mechanism than TZDs. […] Deleterious side effect or TZDs are due to their agonism of PPARg.

primary adipocytes = experiment: Insulin-stimulated glucose uptake in primary adipocytes; type: cell-based, mouse
Experimental: C3 potentiates insulin action in primary adipocytes and in live mice. Using HBG4 mice, insulin stimulated GLUT4 translocation of endogenous GLUT4 was measured in primary skeletal muscle fibers and primary adipocytes. Enhancement of insulin-stimulated translocation of endogenous GLUT4 was also shown in primary adipocytes in the presence of C3. In parallel dishes, increased insulin-stimulated glucose uptake in HBG4 primary adipocyte treated with C3 was found. […] To determine if the HBG4 mouse can be used to measure GLUT4 translocation in vivo, HBG4 mice were pretreated with daily IP injections of vehicle or 50 mg/Kg C3 for 3 days. On the day of the experiment, mice were injected with vehicle or insulin IP followed by a subcutaneous injection of LgBiT and substrate around the leg muscles. Mice were then anesthetized and placed into an IVIS system to measure luminescence. […] Baseline signal was detected in vehicle and C3 treated HBG4 mice. […] It also further confirms the insulin-sensitizing activity of C3 in vivo.

PPARg = target: T1, PPARg (Homo sapiens, UniProt P37231); experiment: Luminescent PPARg reporter assay in vitro; type: cell-based
T1 sequence (P37231 1-505): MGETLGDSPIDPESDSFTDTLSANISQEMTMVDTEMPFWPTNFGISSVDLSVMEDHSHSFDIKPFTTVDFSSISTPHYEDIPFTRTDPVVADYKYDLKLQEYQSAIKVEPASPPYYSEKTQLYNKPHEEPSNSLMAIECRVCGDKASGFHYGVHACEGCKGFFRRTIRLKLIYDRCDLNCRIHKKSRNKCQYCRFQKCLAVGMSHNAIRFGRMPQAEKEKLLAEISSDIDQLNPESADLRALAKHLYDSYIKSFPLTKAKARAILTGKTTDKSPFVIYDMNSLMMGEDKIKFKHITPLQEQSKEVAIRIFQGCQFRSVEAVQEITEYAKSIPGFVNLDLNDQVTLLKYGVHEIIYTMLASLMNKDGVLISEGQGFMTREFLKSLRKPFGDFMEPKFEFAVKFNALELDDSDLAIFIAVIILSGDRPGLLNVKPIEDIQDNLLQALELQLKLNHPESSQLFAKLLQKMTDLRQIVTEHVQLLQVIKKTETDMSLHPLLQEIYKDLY
From the text: as §2

[2] = tested on: GLUT4 translocation in HBG4 mice; experiment: In vivo GLUT4 translocation in HBG4 mice (IVIS luminescence); set-up: species or system mouse; details: HBG4 mice, daily IP 50 mg/Kg for 3 days, insulin IP
Experimental: (§3) C3 potentiates insulin action in primary adipocytes and in live mice. Using HBG4 mice, insulin stimulated GLUT4 translocation of endogenous GLUT4 was measured in primary skeletal muscle fibers and primary adipocytes. Enhancement of insulin-stimulated translocation of endogenous GLUT4 was also shown in primary adipocytes in the presence of C3. In parallel dishes, increased insulin-stimulated glucose uptake in HBG4 primary adipocyte treated with C3 was found. […] To determine if the HBG4 mouse can be used to measure GLUT4 translocation in vivo, HBG4 mice were pretreated with daily IP injections of vehicle or 50 mg/Kg C3 for 3 days. On the day of the experiment, mice were injected with vehicle or insulin IP followed by a subcutaneous injection of LgBiT and substrate around the leg muscles. Mice were then anesthetized and placed into an IVIS system to measure luminescence. […] Baseline signal was detected in vehicle and C3 treated HBG4 mice. […]
DIO HBG4 mice were treated with vehicle or C59 for 2 weeks and injected i.v. with an adenovirus coding for a secreted form of LgBiT (allowing LgBiT production and secretion predominantly by the liver into the circulation) 2 days prior to the experiment. Animal were then injected with saline or insulin 10 minutes before i.v. injection of substrate and luminescence imaging using an IVIS system.

[3] = tested on: GLUT4 translocation in C2C12 myoblast cell line stably expressing HiBiT-GLUT4 (HBG4); experiment: HiBiT (NanoBit) luminescence GLUT4 translocation assay in HBG4 C2C12 cells; type: cell-based, mouse
From the text: An assay was used to identify potentiators of insulin-stimulated GLUT4 translocation. In one embodiment, the assay employs Nanobit technology. This technology is based on the recombination of two complementary fragments, HiBiT and LgBiT, of the Nanoluc luciferase. HiBit was fused to an extracellular region of GLUT4 to allow for the rapid quantitation of its the surface density in live cells by adding the reconibinantly produced complementary fragment LgBiT and the luciferase substrate. Since LgBiT is not membrane permeant, only proteins at the plasma membrane are quantified. To measure GLUT4 translocation, a stable C2C12 myoblast cell line was prepared by expressing a HiBiT-tagged mouse GLUT4. […] The Chembridge Diverset library of 49,600 compounds was screened and 1264 hits were identified. A subset of those hits were selected and retested in the presence and absence of insulin.
Development of a HTS assay for real-time measurement of GLUT4 translocation. To measure GLUT4 translocation in a homogenous and HIS amenable manner, NanoBit technology was used. This technology relies on the rapid recombination of 2 fragments of the Nanoluc luciferase (HiBit and LgBiT) with high affinity for each other. Fragments have no enzymatic activity on their own but generate a bright luminescent signal when recombined. A C2C12 myoblast cell line was prepared that stably expressed HiBiT-GLUT4 (HBG4), in which the small 11 amino acid HiBiT fragment was inserted into the first extracellular loop of GLUT4. A C-terminal mCherry was also added for microscopic detection. The C2C12 line was chosen as an in vitro model because it is derived from skeletal myoblasts and translocate GLUT4 in response to insulin. Detection of plasma membrane density of HBG4 is achieved by adding recombinant LgBit and substrate to live cells. The assay can be conducted as an endpoint where cells are incubated with insulin before measuring luminescence or as a kinetic assay by adding LgBiT and substrate at the beginning of the experiment and monitor real-time insulin-stimulated GLUT4 translocation.
An assay to measure GLUT4 translocation in a homogenous and HIS amenable manner using NanoBit technology was developed. This technology relies on the rapid recombination of 2 fragments of the Nanoiuc luciferase (HiBit and LgBiT) with high affinity for each other. Fragments have no enzymatic activity on their own but generate a bright luminescent signal when recombined. A C2C12 myoblast cell line stably expressing HiBiT-GLUT4 (HBG4), in which the small 11 amino acid HiBiT fragment was inserted into the first extracellular loop of GLUT4 was prepared. A C-terminal mCherry was also added for microscopic detection (FIGS. 1A and B). The C2C12 line was chosen as an in-vitro model because it is derived from skeletal myoblasts and translocates GLUT4 in response to insulin. Detection of plasma membrane density of HBG4 is achieved by adding recombinant LgBit and substrate to live cells (FIG. 1C). The assay can be conducted as a kinetic assay by adding LgBiT and substrate at the beginning of the experiment and monitoring real-time insulin-stimulated GLUT4 translocation (FIGS. 1D and E).

[4] = tested on: endogenous GLUT4 in primary adipocytes; experiment: Insulin-stimulated translocation of endogenous GLUT4 in HBG4 primary adipocytes; type: cell-based, mouse
Experimental: Generating a mouse model for measurement of GLUT4 translocation ex vivo and in-vivo. To enable the validation of identified compounds in a relevant system, a mouse model in which the coding sequence for HiBiT was inserted in the first extracellular loop of endogenous GLUT4 using CRISPR/Cas9 (HBG4 mouse) was prepared. […] GLUT4 was detected in skeletal muscle, white adipose tissue, and brown adipose tissue but not in the brain, spleen, liver, or pancreas, thus, confirming the normal distribution of HiBit-labeled GLUT4 and the ability of this assay to detect endogenous GLUT4 in mouse tissues.
as §3, with “On the day of the experiment, mice were injected with vehicle or insulin IP followed by a subcutaneous injection of LgBiT and substrate around the leg muscles.” left out

[5] = DIO mice, 2 weeks treatment (20 mg/kg)

O=C(Nc1ccc(Cl)c(Cl)c1)C12CC3CC(CC(C3)C1)C2 [Compound C3]
glucose handling in glucose tolerance test ([1]; DIO mice (HFD 10 weeks), injected for 2 weeks (20 mg/kg)): drastically improved; also recorded: rapidly cleared glucose; also recorded: very significant improvement
insulin response to the glucose challenge ([1]; DIO mice, 20 mg/kg for 2 weeks, GTT): normal insulin response
fasting blood glucose [1, 5]: significantly decreased
fasting plasma insulin [1, 5]: significantly decreased
glucose clearance in glucose tolerance test (lean mice): drastically improved; also recorded: significantly accelerated
liver triglyceride content (liver; DIO mice, compared to saline treated mice): significant decrease
plasma level of liver enzyme ALT (liver; treated mice): Neither liver toxicity markers were increased
plasma level of liver enzyme AST (liver; treated mice): Neither liver toxicity markers were increased
insulin-stimulated glucose uptake (primary adipocytes): significantly improved; also recorded: increased
PPARg agonist activity (PPARg): did not activate; also recorded: no agonist activity; also recorded: neither C3 nor C59 have PPARγ agonist activity
insulin-induced luminescence (GLUT4 translocation) in vivo [2]: further increased
GLUT4 translocation on its own ([3]; in the absence of insulin, HBG4 C2C12 cells): no effect
insulin-stimulated GLUT4 translocation ([3]; in the presence of insulin, WT HBG4 C2C12 cells): significantly potentiated; also recorded: enhanced
insulin-stimulated translocation of endogenous GLUT4 [4]: Enhancement
